From patent US20240182531A1, “KV1.3 Blockers” (priority 2021, published 2024)
Where a SMILES comes first, the peptide text is derived from it. Bridges are numbered along the chain shown (N, C = ends). [ ]: non-standard residue; d: D form. Nle = CCCC[C@H](N)C(=O)O

Experiments:
human Kv1.6 = target: T1, human Kv1.6 (Homo sapiens, UniProt P17658); assay: cell-based; conditions: ratio of patch clamp IC50 values
T1 construct: expressed in transfected cells; host or cells: CHO

human Kv1.1 = target: T2, human Kv1.1 (Homo sapiens, UniProt Q09470); assay: cell-based; conditions: ratio of patch clamp IC50 values
T2 construct: expressed in transfected cells; host or cells: CHO

human Kv1.2 = target: T3, human Kv1.2 (Homo sapiens, UniProt P16389); assay: cell-based; conditions: ratio of patch clamp IC50 values
T3 construct: expressed in transfected cells; host or cells: CHO

Rat whole blood = Rat whole blood (Rattus norvegicus, UniProt P15384); format: cell-based; conditions: IL-17A release, thapsigargin, 24 Hr, at least 2 replicates
Sequence of Rat whole blood (P15384 whole entry): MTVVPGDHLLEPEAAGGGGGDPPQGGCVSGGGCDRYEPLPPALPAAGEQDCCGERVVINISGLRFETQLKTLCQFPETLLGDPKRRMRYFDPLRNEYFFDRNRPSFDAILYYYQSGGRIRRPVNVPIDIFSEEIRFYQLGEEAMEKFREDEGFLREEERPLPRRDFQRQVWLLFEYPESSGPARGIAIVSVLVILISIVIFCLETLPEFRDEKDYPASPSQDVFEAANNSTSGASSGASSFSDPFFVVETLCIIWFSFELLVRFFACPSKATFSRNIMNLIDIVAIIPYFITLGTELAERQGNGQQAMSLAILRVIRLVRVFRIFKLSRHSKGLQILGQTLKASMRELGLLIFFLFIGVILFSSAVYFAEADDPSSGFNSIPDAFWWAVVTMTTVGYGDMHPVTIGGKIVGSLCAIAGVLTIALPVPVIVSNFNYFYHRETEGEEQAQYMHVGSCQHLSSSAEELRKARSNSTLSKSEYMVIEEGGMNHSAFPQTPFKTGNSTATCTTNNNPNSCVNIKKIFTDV

T3 sequence (P16389 whole entry): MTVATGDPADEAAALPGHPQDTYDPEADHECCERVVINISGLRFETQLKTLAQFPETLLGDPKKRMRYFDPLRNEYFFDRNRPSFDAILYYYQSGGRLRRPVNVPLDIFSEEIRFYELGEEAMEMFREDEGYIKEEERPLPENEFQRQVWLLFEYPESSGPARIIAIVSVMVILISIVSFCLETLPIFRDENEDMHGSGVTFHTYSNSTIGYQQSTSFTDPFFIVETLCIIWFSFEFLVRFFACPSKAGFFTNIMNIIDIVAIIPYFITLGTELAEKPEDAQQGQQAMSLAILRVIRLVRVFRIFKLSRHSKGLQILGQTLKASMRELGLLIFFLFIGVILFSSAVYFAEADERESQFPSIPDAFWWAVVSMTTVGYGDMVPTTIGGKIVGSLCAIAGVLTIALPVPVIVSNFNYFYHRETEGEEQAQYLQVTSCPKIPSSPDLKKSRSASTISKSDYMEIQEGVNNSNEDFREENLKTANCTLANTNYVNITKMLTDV
T2 sequence (Q09470 whole entry): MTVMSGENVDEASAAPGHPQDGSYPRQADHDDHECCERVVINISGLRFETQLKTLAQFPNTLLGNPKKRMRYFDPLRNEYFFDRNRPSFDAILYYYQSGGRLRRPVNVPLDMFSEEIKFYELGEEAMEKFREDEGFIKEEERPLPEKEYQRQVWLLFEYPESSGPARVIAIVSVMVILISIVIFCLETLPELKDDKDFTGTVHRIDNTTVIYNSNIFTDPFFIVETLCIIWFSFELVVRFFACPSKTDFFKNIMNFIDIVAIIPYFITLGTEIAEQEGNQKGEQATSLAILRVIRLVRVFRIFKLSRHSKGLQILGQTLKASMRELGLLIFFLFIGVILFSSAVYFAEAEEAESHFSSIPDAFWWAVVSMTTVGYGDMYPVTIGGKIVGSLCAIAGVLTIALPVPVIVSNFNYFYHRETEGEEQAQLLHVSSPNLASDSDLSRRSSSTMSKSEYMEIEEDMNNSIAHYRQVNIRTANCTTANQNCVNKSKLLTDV
T1 sequence (P17658 whole entry): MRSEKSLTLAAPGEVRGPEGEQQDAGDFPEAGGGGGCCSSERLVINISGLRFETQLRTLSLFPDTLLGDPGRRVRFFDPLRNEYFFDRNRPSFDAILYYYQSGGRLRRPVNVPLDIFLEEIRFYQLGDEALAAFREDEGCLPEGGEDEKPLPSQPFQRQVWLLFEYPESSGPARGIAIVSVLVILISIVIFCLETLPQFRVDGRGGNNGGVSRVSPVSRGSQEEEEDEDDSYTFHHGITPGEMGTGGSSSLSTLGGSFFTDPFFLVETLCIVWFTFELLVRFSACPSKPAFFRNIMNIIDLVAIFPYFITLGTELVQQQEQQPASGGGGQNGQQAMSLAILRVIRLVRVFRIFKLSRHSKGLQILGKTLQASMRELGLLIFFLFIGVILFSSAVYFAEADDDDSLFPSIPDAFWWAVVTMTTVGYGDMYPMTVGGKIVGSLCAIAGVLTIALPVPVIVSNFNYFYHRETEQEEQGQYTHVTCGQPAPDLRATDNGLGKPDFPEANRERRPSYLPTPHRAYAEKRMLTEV

Structure (SMILES) | Selectivity ratio Kv1.6/Kv1.3 (human Kv1.6) | Selectivity ratio Kv1.1/Kv1.3 (human Kv1.1) | Selectivity ratio Kv1.2/Kv1.3 (human Kv1.2) | IC50 (Rat whole blood) [nM]
CCCC[C@@H]1NC(=O)[C@@H]2CSSC[C@H](NC(C)=O)C(=O)N[C@@H](CO)C(=O)N[C@@H](C)C(=O)N[C@@H](CO)C(=O)N[C@@H](C(C)C)C(=O)N[C@@H](CCC(=O)O)C(=O)N[C@H]3CSSC[C@H](NC(=O)[C@H](CCCCN)NC(=O)[C@H](CCCCN)NC(=O)[C@H](CC(N)=O)NC1=O)C(=O)N[C@@H](CCCCN)C(=O)N[C@H](C(=O)N[C@@H](Cc1ccc(O)cc1)C(=O)N1CCC[C@H]1C(=O)N[C@@H](CCCNC(=N)N)C(N)=O)CSSC[C@H](NC(=O)[C@H](CCCCN)NC(=O)[C@H](CCC(N)=O)NC(=O)[C@H](CCCCN)NC3=O)C(=O)N[C@@H](CC(C)C)C(=O)N[C@@H](CCCCN)C(=O)N[C@@H](C)C(=O)N[C@@H]([C@@H](C)CC)C(=O)NCC(=O)N[C@@H](CO)C(=O)N[C@@H]([C@@H](C)CC)C(=O)N[C@@H](Cc1ccccc1)C(=O)NCC(=O)N[C@@H](CCCCN)C(=O)N2 [compound 99] (Ac-CSASVECKQKCLKAIGSIFGKC[Nle]NKKCKCYPR-NH2; disulfide 1-22, 7-27, 11-29) | >12400 | >12400 | 1591 | 0.88
CCCC[C@@H]1NC(=O)[C@@H]2CSSC[C@H](NC(=O)[C@H](CCCNC(=N)N)NC(=O)[C@H](CCCC)NC(=O)[C@H](CC(=O)O)NC(=O)[C@H](CCCC)NC(=O)[C@@H](N)CC(N)=O)C(=O)N[C@@H](CO)C(=O)N[C@@H](C)C(=O)N[C@@H](CO)C(=O)N[C@@H](C(C)C)C(=O)N[C@@H](CCC(=O)O)C(=O)N[C@H]3CSSC[C@H](NC(=O)[C@H](CCCCN)NC(=O)[C@H](CCCCN)NC(=O)[C@H](CC(N)=O)NC1=O)C(=O)N[C@@H](CCCCN)C(=O)N[C@H](C(=O)N[C@@H](Cc1ccc(O)cc1)C(=O)N1CCC[C@H]1C(=O)N[C@@H](CCCNC(=N)N)C(N)=O)CSSC[C@H](NC(=O)[C@H](CCCCN)NC(=O)[C@H](CCC(N)=O)NC(=O)[C@H](CCCCN)NC3=O)C(=O)N[C@@H](CCCCN)C(=O)N[C@@H](C)C(=O)N[C@@H]([C@@H](C)CC)C(=O)NCC(=O)N[C@@H](CO)C(=O)N[C@@H]([C@@H](C)CC)C(=O)N[C@@H](Cc1ccccc1)C(=O)NCC(=O)N[C@@H](CCCCN)C(=O)N2 [compound 53] (H-N[Nle]D[Nle]RCSASVECKQKCKAIGSIFGKC[Nle]NKKCKCYPR-NH2; disulfide 6-26, 12-31, 16-33) | 707 | >2200 | 123 | 1
CC[C@H](C)[C@@H]1NC(=O)[C@H](C)NC(=O)[C@H](CCCCN)NC(=O)[C@H](CC(C)C)NC(=O)[C@@H]2CSSC[C@@H](C(=O)N[C@@H](Cc3ccc(O)cc3)C(=O)N3CCC[C@H]3C(=O)N[C@@H](CCCNC(=N)N)C(N)=O)NC(=O)[C@H](Cc3c[nH]cn3)NC(=O)[C@@H]3CSSC[C@H](NC(=O)[C@H](CCC(=O)O)NC(=O)[C@H](C(C)C)NC(=O)[C@H](CO)NC(=O)[C@H](C)NC(=O)[C@H](CO)NC(=O)[C@@H](NC(=O)[C@H](CCCNC(=N)N)NC(=O)[C@H](CCSC)NC(=O)[C@H](CC(=O)O)NC(=O)[C@H](CCSC)NC(=O)[C@@H](N)CC(N)=O)CSSC[C@H](NC(=O)[C@H](CCCCN)NC(=O)CNC(=O)[C@H](Cc4ccccc4)NC(=O)[C@H]([C@@H](C)CC)NC(=O)[C@H](CO)NC(=O)CNC1=O)C(=O)N[C@@H](CCSC)C(=O)N[C@@H](CC(N)=O)C(=O)N[C@@H](CCCCN)C(=O)N[C@@H](CCCCN)C(=O)N3)C(=O)N[C@@H](CCCCN)C(=O)N[C@@H](CCC(N)=O)C(=O)N[C@@H](CCCCN)C(=O)N2 [compound 41] (H-NMDMRCSASVECKQKCLKAIGSIFGKCMNKKCHCYPR-NH2; disulfide 6-27, 12-32, 16-34) | >16100 | >16100 | 1816 | 0.77
CC[C@H](C)[C@@H]1NC(=O)[C@H](C)NC(=O)[C@H](CCCCN)NC(=O)[C@H](CC(C)C)NC(=O)[C@@H]2CSSC[C@@H](C(=O)N[C@@H](Cc3ccc(O)cc3)C(=O)N3CCC[C@H]3C(=O)N[C@@H](CCCNC(=N)N)C(N)=O)NC(=O)[C@H](CCCCN)NC(=O)[C@@H]3CSSC[C@H](NC(=O)[C@H](CCC(=O)O)NC(=O)[C@H](C(C)C)NC(=O)[C@H](CO)NC(=O)[C@H](C)NC(=O)[C@H](CO)NC(=O)[C@@H](NC(=O)[C@H](CCCNC(=N)N)NC(=O)[C@H](CCSC)NC(=O)[C@H](CC(=O)O)NC(=O)[C@H](CCSC)NC(=O)[C@@H](N)CC(N)=O)CSSC[C@H](NC(=O)[C@H](CCCCN)NC(=O)CNC(=O)[C@H](Cc4ccccc4)NC(=O)[C@H]([C@@H](C)CC)NC(=O)[C@H](CO)NC(=O)CNC1=O)C(=O)N[C@@H](CCSC)C(=O)N[C@@H](CC(N)=O)C(=O)NCC(=O)N[C@@H](CCCCN)C(=O)N3)C(=O)N[C@@H](CCCCN)C(=O)N[C@@H](CCC(N)=O)C(=O)N[C@@H](CCCCN)C(=O)N2 [compound 40] (H-NMDMRCSASVECKQKCLKAIGSIFGKCMNGKCKCYPR-NH2; disulfide 6-27, 12-32, 16-34) | >9700 | >9700 | 1422 | 1.2
CC[C@H](C)[C@@H]1NC(=O)[C@H](C)NC(=O)[C@H](CCCCN)NC(=O)[C@H](CC(C)C)NC(=O)[C@@H]2CSSC[C@@H](C(=O)N[C@@H](Cc3ccc(O)cc3)C(=O)N3CCC[C@H]3C(=O)N[C@@H](CCCNC(=N)N)C(N)=O)NC(=O)[C@H](CCCCN)NC(=O)[C@@H]3CSSC[C@H](NC(=O)[C@H](CCC(=O)O)NC(=O)[C@H](C(C)C)NC(=O)[C@H](CO)NC(=O)[C@H](C)NC(=O)[C@H](CO)NC(=O)[C@@H](NC(=O)[C@H](CCCNC(=N)N)NC(=O)[C@H](CCSC)NC(=O)[C@H](CC(=O)O)NC(=O)[C@H](CCSC)NC(=O)[C@@H](N)CC(N)=O)CSSC[C@H](NC(=O)[C@H](CCCCN)NC(=O)CNC(=O)[C@H](Cc4ccccc4)NC(=O)[C@H]([C@@H](C)CC)NC(=O)[C@H](CO)NC(=O)CNC1=O)C(=O)N[C@@H](CCSC)C(=O)N[C@@H](CC(N)=O)C(=O)N[C@@H](CCCCN)C(=O)N[C@@H](CCCCN)C(=O)N3)C(=O)N[C@@H](CC(C)C)C(=O)N[C@@H](CCC(N)=O)C(=O)N[C@@H](CCCCN)C(=O)N2 [compound 33] (H-NMDMRCSASVECLQKCLKAIGSIFGKCMNKKCKCYPR-NH2; disulfide 6-27, 12-32, 16-34) | >7400 | >7400 | 2163 | 0.76
CC[C@H](C)[C@@H]1NC(=O)[C@H](C)NC(=O)[C@H](CCCCN)NC(=O)[C@H](CC(C)C)NC(=O)[C@@H]2CSSC[C@@H](C(=O)N[C@@H](Cc3ccc(O)cc3)C(=O)N3CCC[C@H]3C(=O)N[C@@H](CCCNC(=N)N)C(N)=O)NC(=O)[C@H](CCCCN)NC(=O)[C@@H]3CSSC[C@H](NC(=O)[C@H](CCC(=O)O)NC(=O)[C@H](C(C)C)NC(=O)[C@H](CO)NC(=O)[C@H]([C@@H](C)CC)NC(=O)[C@H](CO)NC(=O)[C@@H](NC(=O)[C@H](CCCNC(=N)N)NC(=O)[C@H](CCSC)NC(=O)[C@H](CC(=O)O)NC(=O)[C@H](CCSC)NC(=O)[C@@H](N)CC(N)=O)CSSC[C@H](NC(=O)[C@H](CCCCN)NC(=O)CNC(=O)[C@H](Cc4ccccc4)NC(=O)[C@H]([C@@H](C)CC)NC(=O)[C@H](CO)NC(=O)CNC1=O)C(=O)N[C@@H](CCSC)C(=O)N[C@@H](CC(N)=O)C(=O)N[C@@H](CCCCN)C(=O)N[C@@H](CCCCN)C(=O)N3)C(=O)N[C@@H](CCCCN)C(=O)N[C@@H](CCC(N)=O)C(=O)N[C@@H](CCCCN)C(=O)N2 [compound 30] (H-NMDMRCSISVECKQKCLKAIGSIFGKCMNKKCKCYPR-NH2; disulfide 6-27, 12-32, 16-34) | >11800 | >11800 | 169 | 0.61
CCCC[C@@H]1NC(=O)[C@@H]2CSSC[C@H](NC(=O)[C@H](CCCNC(=N)N)NC(=O)[C@H](CCCC)NC(=O)[C@H](CC(=O)O)NC(=O)[C@H](CCCC)NC(=O)[C@@H](N)CC(N)=O)C(=O)N[C@@H](CO)C(=O)N[C@@H](C)C(=O)N[C@@H](CO)C(=O)N[C@@H](C(C)C)C(=O)N[C@@H](CCC(=O)O)C(=O)N[C@H]3CSSC[C@H](NC(=O)[C@H](CCCCN)NC(=O)[C@H](CCCCN)NC(=O)[C@H](CC(N)=O)NC1=O)C(=O)N[C@@H](CCCCN)C(=O)N[C@H](C(=O)N[C@@H](Cc1ccc(O)cc1)C(=O)N1CCC[C@H]1C(=O)N[C@@H](CCCNC(=N)N)C(N)=O)CSSC[C@H](NC(=O)[C@H](CCCCN)NC(=O)[C@H](CCCCN)NC(=O)[C@H](CCCCN)NC3=O)C(=O)N[C@@H](CC(C)C)C(=O)N[C@@H](CCCCN)C(=O)N[C@@H](C)C(=O)N[C@@H]([C@@H](C)CC)C(=O)NCC(=O)N[C@@H](CO)C(=O)N[C@@H]([C@@H](C)CC)C(=O)N[C@@H](Cc1ccccc1)C(=O)NCC(=O)N[C@@H](CCCCN)C(=O)N2 [compound 49] (H-N[Nle]D[Nle]RCSASVECKKKCLKAIGSIFGKC[Nle]NKKCKCYPR-NH2; disulfide 6-27, 12-32, 16-34) | >4000 | >4000 | 343 | 1.4
